# How the values were obtained:
# [1] = target: T1, C-C chemokine receptor type 2 (Homo sapiens, UniProt P41597); test: Percent inhibition of […] (Monocyte Chemoattractant Protein-1) binding to THP-1 cells at 100 uM; format: cell-based
# Target sequence in this assay (P41597 whole entry, looked up): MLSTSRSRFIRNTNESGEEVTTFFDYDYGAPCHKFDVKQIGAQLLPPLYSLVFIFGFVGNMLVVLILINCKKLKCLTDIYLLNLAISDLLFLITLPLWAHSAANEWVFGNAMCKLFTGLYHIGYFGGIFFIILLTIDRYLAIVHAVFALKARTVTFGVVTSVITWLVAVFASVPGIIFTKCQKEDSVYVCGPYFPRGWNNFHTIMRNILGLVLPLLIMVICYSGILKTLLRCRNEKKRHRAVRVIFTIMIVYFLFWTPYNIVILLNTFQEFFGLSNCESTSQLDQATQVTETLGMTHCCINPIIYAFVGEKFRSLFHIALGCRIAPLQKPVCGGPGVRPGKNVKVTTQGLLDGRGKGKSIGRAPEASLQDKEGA
# [2] = target: T1, C-C chemokine receptor type 2; test: Concentration required to inhibit [125I]MCP-1 (Monocyte Chemoattractant Protein-1) binding to THP-1 cell; format: cell-based
# Target sequence in this assay (P41597 whole entry): as the sequence (P41597 whole entry, looked up) above
# [3] = target: T1, C-C chemokine receptor type 2; test: Percent inhibition of [125I]MCP-1 (Monocyte Chemoattractant Protein-1) binding to THP-1 cells at 100 uM; format: cell-based
# Target sequence in this assay (P41597 whole entry, looked up): as above
# [4] = Effective concentration in a chemotaxis assay; format: functional
# [5] = target: T1, C-C chemokine receptor type 2; test: Concentration required to inhibit [125I]MCP-1 (Monocyte Chemoattractant Protein-1) binding to THP-1 cell; not determined; format: cell-based
# Target sequence in this assay (P41597 whole entry): as the sequence (P41597 whole entry, looked up) above
Compound,inhibition [1] [%],IC50 [2] [µM],inhibition [3] [%],further results
c1ccc(C(CCN2CCCN(Cc3cccnc3)CC2)c2ccccc2)cc1,69,–,–,–
FC(F)(F)c1ccc(CN2CCCN(CCC(c3ccccc3)c3ccccc3)CC2)cc1,25,–,–,–
O=C(CN1CCCN(CCC(O)(c2ccccc2)c2cccc(O)c2)CC1)NNC(=O)c1cccs1 (stereo not given),–,28,–,–
c1ccc(C(CCN2CCCN(Cc3ccccn3)CC2)c2ccccc2)cc1,35,–,–,–
CS(=O)(=O)c1ccc(CN2CCCN(CCC(O)(c3ccccc3)c3ccccc3)CC2)cc1,–,4.1,104,–
CC(C)(C)c1ccc(C(O)(CCN2CCCN(Cc3ccc(S(C)(=O)=O)cc3)CC2)c2ccc(C(C)(C)C)cc2)cc1,–,–,39,–
CS(=O)(=O)c1ccc(CN2CCCN(CCC(O)(c3ccccc3)c3cccc(CO)c3)CC2)cc1 (stereo not given),–,4,100,–
Cc1ccccc1C(O)(CCN1CCCN(Cc2ccc(S(C)(=O)=O)cc2)CC1)c1ccccc1C,–,–,0,–
CCCN1CCCN(CCC(c2ccccc2)c2ccccc2)CC1,15,–,–,–
CS(=O)(=O)c1ccc(CN2CCCN(CCC(O)(c3ccccc3)c3cccc(F)c3)CC2)cc1 (stereo not given),–,12,95,–
CS(=O)(=O)c1ccc(CN2CCCN(Cc3ccc(Cl)cc3)CC2)cc1,–,> 100,–,–
CS(=O)(=O)c1ccc(CN2CCCN(CCC(O)(c3ccccc3)c3cccc(O)c3)CC2)cc1 (stereo not given),–,0.71,105,–
O=[N+]([O-])c1ccccc1CN1CCCN(CCC(c2ccccc2)c2ccccc2)CC1,7,–,–,–
CS(=O)(=O)c1ccc(CN2CCCN(CCC(O)(c3ccc(O)cc3)c3ccc(O)cc3)CC2)cc1,–,21,83,–
Cc1csc(C(=O)NNC(=O)CN2CCCN(Cc3ccc(Cl)cc3)CC2)c1,–,7.4,–,EC50 [4]: 9.5 µM
CS(=O)(=O)c1ccc(CN2CCCN(CCC(O)(c3cccc(O)c3)c3cccc(Cl)c3)CC2)cc1 (stereo not given),–,4.5,99,–
CS(=O)(=O)c1ccc(CN2CCCN(CCC(O)(c3ccc(F)cc3)c3ccc(F)cc3)CC2)cc1,–,7,100,–
CS(=O)(=O)c1ccc(CN2CCCN(CCC(O)(c3ccc(Cl)cc3)c3cccc(O)c3)CC2)cc1 (stereo not given),–,1.5,104,–
Cc1csc(C(=O)NNC(=O)CN2CCCN(CCC(O)(c3ccccc3)c3cccc(O)c3)CC2)c1 (stereo not given),–,6.4,–,–
COc1cccc(C(O)(CCN2CCCN(Cc3ccc(S(C)(=O)=O)cc3)CC2)c2cccc(OC)c2)c1,–,–,38,–
CNc1cccc(C(O)(CCN2CCCN(Cc3ccc(S(C)(=O)=O)cc3)CC2)c2ccccc2)c1 (stereo not given),–,5,87,–
O=[N+]([O-])c1cccc(CN2CCCN(CCC(c3ccccc3)c3ccccc3)CC2)c1,35,–,–,–
CS(=O)(=O)c1ccc(CN2CCCN(CCC(O)(c3cccc(F)c3)c3cccc(F)c3)CC2)cc1,–,34,75,–

Compound,inhibition [1] [%],IC50 [2] [µM],inhibition [3] [%],further results
N#Cc1ccc(CN2CCCN(CCC(c3ccccc3)c3ccccc3)CC2)cc1,74,43,–,–
CS(=O)(=O)c1ccc(CN2CCCN(CCC(O)(c3ccc(C(F)(F)F)cc3)c3ccc(C(F)(F)F)cc3)CC2)cc1,–,–,38,–
NS(=O)(=O)c1ccc(CN2CCCN(CCC(O)(c3ccccc3)c3cccc(O)c3)CC2)cc1 (stereo not given),–,1.5,–,–
Clc1ccc(CN2CCCN(CCC(c3ccccc3)c3ccccc3)CC2)cc1,8,–,–,–
CS(=O)(=O)c1ccc(CN2CCCN(CCC(O)(c3ccc(-c4ccccc4)cc3)c3ccc(-c4ccccc4)cc3)CC2)cc1,–,–,0,–
CS(=O)(=O)c1ccc(CN2CCCN(CCC(O)(c3cccc(O)c3)c3cccc(O)c3)CC2)cc1,–,–,108,IC50 [5]: 1.5 µM
CS(=O)(=O)c1ccc(CN2CCCN(CCC(c3ccccc3)c3ccccc3)CC2)cc1,91,13,–,–
COc1ccc(CN2CCCN(CCC(c3ccccc3)c3ccccc3)CC2)cc1,7,–,–,–
CS(=O)(=O)c1ccc(CN2CCCN(CCC(O)(c3cccc(O)c3)c3cccc(F)c3)CC2)cc1 (stereo not given),–,2.4,104,–
O=C(CN1CCCN(Cc2ccc(Cl)cc2)CC1)NNC(=O)c1cccs1,–,30,–,–
COc1ccccc1C(O)(CCN1CCCN(Cc2ccc(S(C)(=O)=O)cc2)CC1)c1ccccc1OC,–,–,14,–
c1ccc(CN2CCCN(CCC(c3ccccc3)c3ccccc3)CC2)cc1,24,–,–,–
Cc1cccc(C(O)(CCN2CCCN(Cc3ccc(S(C)(=O)=O)cc3)CC2)c2ccccc2)c1 (stereo not given),–,16,92,–
CN(C)c1ccc(C(O)(CCN2CCCN(Cc3ccc(S(C)(=O)=O)cc3)CC2)c2ccc(N(C)C)cc2)cc1,–,45,68,–
c1ccc(C(CCN2CCCN(Cc3ccncc3)CC2)c2ccccc2)cc1,87,11,–,–
CS(=O)(=O)c1ccc(CN2CCCN(CCC(O)(c3ccccc3)c3cccc(N)c3)CC2)cc1 (stereo not given),–,4.2,102,–
O=[N+]([O-])c1ccc(CN2CCCN(CCC(c3ccccc3)c3ccccc3)CC2)cc1,87,19,–,–
COC(=O)c1ccc(CN2CCCN(CCC(c3ccccc3)c3ccccc3)CC2)cc1,1,–,–,–
CS(=O)(=O)c1ccc(CN2CCCN(CCC(O)(c3cccc(Cl)c3)c3cccc(Cl)c3)CC2)cc1,–,–,28,–
CS(=O)(=O)c1ccc(CN2CCCN(CCC(O)(c3cccc(O)c3)c3cc(F)cc(F)c3)CC2)cc1 (stereo not given),–,9.3,107,–
CS(=O)(=O)c1ccc(CN2CCCN(CCC(O)(c3ccc(F)cc3)c3cccc(O)c3)CC2)cc1 (stereo not given),–,1.5,105,–
CS(=O)(=O)c1ccc(CN2CCCN(CCC(O)(c3ccc(Cl)cc3)c3ccc(Cl)cc3)CC2)cc1,–,11,94,–
COc1cccc(C(O)(CCN2CCCN(Cc3ccc(S(C)(=O)=O)cc3)CC2)c2ccccc2)c1 (stereo not given),–,7.9,97,–

# Source: ChEMBL document CHEMBL1138003, “Small molecule inhibitors of the CCR2b receptor. Part 1: Discovery and optimization of homopiperazine derivatives” (Bioorg Med Chem Lett, 2004)
